# Measurements as given in patent EP4721744A1, “PHARMACEUTICAL COMPOSITION COMPRISING CEPHALOSPORIN ANTIBACTERIAL COMPOUND” (Jiangsu Hengrui Pharmaceuticals Co., Ltd., priority 2023, dated 2024).
# Assays:
# [1] = bulk compound; needs to be stored at or below -60°C; cited from earlier work
# [2] = Solubility test in different solvent systems; type: physicochemical
# Procedure: Different solvent systems were prepared to test the solubility of the compound as shown in formula (I). Table 1 Solubility test
# [3] = Purified water + 1 M NaOH solution for pH adjustment, 4.9 ml, charging amount 500.4 mg
# [4] = Purified water, 250 mL, charging amount 20.01 mg
smiles,measurement,setting,value
CC(C)(O/N=C(\C(=O)N[C@@H]1C(=O)N2C(C(=O)[O-])=C(C[N+]3(CCCN(CCCNC(=O)c4ccc(O)c(O)c4Cl)C(=O)c4ccc(O)c(O)c4Cl)CCCC3)CS[C@H]12)c1csc(N)n1)C(=O)O [compound as shown in formula (I)],stability,[1],extremely poor stability
same,Dissolution Status,"[2]; Hydrochloric acid (pH 1.0), 200 mL, charging amount 19.99 mg",Incomplete dissolution
same,Dissolution Status,[2]; [3],Complete dissolution
same,Solution pH after complete dissolution,[2]; [3],5.08
same,Dissolution Status,"[2]; Purified water, 20 mL, charging amount 20.01 mg",Incomplete dissolution
same,Dissolution Status,[2]; [4],Complete dissolution
same,Solution pH after complete dissolution,[2]; [4],3.6
same,solubility,"[2]; Purified water, 250 mL, solution pH 3.6",< 1 mg/mL
same,solubility,"[2]; purified water adjusted with 1 M NaOH solution, aqueous buffer, Purified water + 1 M NaOH solution for pH adjustment, 4.9 ml, solution pH 5.08",≥ 100 mg/mL
